Test results taken from ChEMBL document CHEMBL1201862, “PubChem BioAssay data set” (2004).
Calls of active or inactive are those of the source.

Experiments:
[1] = molecular target: Large T antigen (Simian virus 40, UniProt P03070); format: functional, Betapolyomavirus macacae;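 further: Confirmatory-stage PubChem screen for compounds that inhibit SV40 T antigen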
[2] = molecular target: Beta-2 adrenergic receptor (Homo sapiens, UniProt P07550); assay: ADRB2 activation measured by internalization – cell-based, FAP fluorogen, flow cytometry, cherry pick 1, dose response (AID 588763); format: functional
Beta-2 adrenergic receptor, sequence (P07550 whole entry): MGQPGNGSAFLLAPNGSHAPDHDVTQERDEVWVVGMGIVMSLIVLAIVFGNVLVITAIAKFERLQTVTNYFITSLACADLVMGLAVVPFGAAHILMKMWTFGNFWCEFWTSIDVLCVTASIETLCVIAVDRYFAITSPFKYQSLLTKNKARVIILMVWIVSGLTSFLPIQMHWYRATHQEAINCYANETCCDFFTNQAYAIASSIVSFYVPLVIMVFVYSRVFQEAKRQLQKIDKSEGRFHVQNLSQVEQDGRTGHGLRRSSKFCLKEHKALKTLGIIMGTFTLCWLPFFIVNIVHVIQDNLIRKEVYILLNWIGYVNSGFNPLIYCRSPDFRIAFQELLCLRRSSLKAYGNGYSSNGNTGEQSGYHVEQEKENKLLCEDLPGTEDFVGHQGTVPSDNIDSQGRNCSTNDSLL

[3] = molecular target: T1, Rac GTPase-activating protein 1 (Homo sapiens, UniProt Q9H0H5); assay: blockers of MgcRacGAP-driven Rac1 GTP hydrolysis – biochemical, ADP Hunter fluorescence, primary and confirmatory, confirmation (AID 624330); format: functional
T1 sequence (Q9H0H5 whole entry): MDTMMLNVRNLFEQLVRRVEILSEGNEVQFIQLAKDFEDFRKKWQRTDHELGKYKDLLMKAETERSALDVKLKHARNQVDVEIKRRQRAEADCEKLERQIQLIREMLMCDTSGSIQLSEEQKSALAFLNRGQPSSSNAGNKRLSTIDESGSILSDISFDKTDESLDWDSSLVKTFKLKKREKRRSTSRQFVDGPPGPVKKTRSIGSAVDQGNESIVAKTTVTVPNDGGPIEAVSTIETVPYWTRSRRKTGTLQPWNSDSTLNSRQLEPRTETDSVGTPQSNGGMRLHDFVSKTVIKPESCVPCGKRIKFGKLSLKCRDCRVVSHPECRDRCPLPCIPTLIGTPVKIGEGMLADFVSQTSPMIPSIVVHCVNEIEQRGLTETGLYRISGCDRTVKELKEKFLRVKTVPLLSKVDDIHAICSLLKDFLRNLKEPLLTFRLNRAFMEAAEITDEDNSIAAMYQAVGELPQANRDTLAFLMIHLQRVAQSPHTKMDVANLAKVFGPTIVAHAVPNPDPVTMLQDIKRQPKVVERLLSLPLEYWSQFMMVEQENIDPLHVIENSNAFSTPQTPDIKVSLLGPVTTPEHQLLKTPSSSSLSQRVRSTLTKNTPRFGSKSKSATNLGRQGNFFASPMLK

[4] = NIH-3T3 fibroblast cytotoxicity, dose response, cytotoxicity control, cell-based, fluorescence, Alamar Blue, secondary assay (AID 2327); format: functional;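 further: NIH-3T3 mouse fibroblasts cultured with fluconazole at 8 µg/mL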
[5] = fluconazole-exposed Candida albicans growth modulators – fluorescence, retest, confirmation (AID 2467); format: functional, cell-based
[6] = molecular target: T2, Serine/threonine-protein phosphatase (Candida dubliniensis (strain CD36 / CBS 7987 / NCPF 3949 / NRRLY-17841) (Yeast), UniProt B9W6M3); assay: blockers of CaCl2-induced CDRE-lacZ signaling – S. cerevisiae, luminescence, secondary, dose response (AID 2388); format: functional, cell-based;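 further: yeast reporter cells carrying a calcineurin-responsive lacZ construct stimulated with calcium chloride; luminescent beta-galactosidase reporter signal in whole cells rather than isolated phosphatase activity; potency for inhibition where a drop in reporter signal means calcineurin blockade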
T2 sequence (B9W6M3 whole entry): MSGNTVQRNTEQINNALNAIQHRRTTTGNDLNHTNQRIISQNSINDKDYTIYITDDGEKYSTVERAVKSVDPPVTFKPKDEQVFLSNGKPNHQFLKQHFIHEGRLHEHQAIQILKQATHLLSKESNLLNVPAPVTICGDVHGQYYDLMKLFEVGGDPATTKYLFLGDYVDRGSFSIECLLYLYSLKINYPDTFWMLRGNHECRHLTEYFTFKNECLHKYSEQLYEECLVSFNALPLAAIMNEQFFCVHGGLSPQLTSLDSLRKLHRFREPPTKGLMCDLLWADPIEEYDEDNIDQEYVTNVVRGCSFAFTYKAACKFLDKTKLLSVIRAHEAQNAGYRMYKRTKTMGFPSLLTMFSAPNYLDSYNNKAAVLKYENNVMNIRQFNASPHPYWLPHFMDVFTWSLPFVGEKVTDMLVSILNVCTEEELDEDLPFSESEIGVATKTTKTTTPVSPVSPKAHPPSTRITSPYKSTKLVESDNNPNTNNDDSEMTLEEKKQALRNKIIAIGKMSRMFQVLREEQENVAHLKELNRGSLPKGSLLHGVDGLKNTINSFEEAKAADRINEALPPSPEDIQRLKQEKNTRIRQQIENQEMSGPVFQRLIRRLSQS

[7] = molecular target: ATP-dependent molecular chaperone HSP82 (Candida albicans (strain WO-1) (Yeast), UniProt C4YTQ8); assay: steroid-induced GRE reporter decrease in yeast – S. cerevisiae, luminescence, Hsp90 inhibitor project, dose response (AID 2400); format: functional, cell-based;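 further: beta-galactosidase luminescence from glucocorticoid response element reporter as proxy for Hsp90 function; inhibitor potency where signal loss means Hsp90 inhibition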
ATP-dependent molecular chaperone HSP82, sequence (C4YTQ8 whole entry): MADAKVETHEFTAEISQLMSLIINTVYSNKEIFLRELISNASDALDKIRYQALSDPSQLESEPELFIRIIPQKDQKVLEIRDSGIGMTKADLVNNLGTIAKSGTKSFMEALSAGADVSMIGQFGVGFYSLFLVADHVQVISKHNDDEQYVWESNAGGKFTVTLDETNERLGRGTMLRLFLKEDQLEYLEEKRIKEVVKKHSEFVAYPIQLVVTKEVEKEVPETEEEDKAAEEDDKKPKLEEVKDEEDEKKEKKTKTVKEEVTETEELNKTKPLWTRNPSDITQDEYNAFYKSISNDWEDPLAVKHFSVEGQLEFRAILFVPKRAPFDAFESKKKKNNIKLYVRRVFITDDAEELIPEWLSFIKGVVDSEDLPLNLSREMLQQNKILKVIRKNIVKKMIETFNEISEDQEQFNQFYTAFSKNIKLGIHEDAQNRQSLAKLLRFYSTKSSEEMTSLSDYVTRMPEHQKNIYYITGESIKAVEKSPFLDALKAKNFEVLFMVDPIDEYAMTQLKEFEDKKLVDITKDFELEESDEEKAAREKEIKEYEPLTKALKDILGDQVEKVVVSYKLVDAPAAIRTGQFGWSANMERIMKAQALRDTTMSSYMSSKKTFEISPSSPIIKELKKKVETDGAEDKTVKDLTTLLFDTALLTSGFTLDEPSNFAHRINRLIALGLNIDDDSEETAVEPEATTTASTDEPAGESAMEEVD

[8] = molecular target: T3, Fatty acid synthase (Homo sapiens, UniProt P49327); assay: inhibition of human FAS-TE enzyme activity – biochemical, endpoint fluorescence intensity, uHTS hits, dose response (AID 624327); format: functional;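 further: fluorescence from hydrolysis of an O-methyl fluorescein acyl ester substrate by the enzyme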
T3 sequence (P49327 whole entry): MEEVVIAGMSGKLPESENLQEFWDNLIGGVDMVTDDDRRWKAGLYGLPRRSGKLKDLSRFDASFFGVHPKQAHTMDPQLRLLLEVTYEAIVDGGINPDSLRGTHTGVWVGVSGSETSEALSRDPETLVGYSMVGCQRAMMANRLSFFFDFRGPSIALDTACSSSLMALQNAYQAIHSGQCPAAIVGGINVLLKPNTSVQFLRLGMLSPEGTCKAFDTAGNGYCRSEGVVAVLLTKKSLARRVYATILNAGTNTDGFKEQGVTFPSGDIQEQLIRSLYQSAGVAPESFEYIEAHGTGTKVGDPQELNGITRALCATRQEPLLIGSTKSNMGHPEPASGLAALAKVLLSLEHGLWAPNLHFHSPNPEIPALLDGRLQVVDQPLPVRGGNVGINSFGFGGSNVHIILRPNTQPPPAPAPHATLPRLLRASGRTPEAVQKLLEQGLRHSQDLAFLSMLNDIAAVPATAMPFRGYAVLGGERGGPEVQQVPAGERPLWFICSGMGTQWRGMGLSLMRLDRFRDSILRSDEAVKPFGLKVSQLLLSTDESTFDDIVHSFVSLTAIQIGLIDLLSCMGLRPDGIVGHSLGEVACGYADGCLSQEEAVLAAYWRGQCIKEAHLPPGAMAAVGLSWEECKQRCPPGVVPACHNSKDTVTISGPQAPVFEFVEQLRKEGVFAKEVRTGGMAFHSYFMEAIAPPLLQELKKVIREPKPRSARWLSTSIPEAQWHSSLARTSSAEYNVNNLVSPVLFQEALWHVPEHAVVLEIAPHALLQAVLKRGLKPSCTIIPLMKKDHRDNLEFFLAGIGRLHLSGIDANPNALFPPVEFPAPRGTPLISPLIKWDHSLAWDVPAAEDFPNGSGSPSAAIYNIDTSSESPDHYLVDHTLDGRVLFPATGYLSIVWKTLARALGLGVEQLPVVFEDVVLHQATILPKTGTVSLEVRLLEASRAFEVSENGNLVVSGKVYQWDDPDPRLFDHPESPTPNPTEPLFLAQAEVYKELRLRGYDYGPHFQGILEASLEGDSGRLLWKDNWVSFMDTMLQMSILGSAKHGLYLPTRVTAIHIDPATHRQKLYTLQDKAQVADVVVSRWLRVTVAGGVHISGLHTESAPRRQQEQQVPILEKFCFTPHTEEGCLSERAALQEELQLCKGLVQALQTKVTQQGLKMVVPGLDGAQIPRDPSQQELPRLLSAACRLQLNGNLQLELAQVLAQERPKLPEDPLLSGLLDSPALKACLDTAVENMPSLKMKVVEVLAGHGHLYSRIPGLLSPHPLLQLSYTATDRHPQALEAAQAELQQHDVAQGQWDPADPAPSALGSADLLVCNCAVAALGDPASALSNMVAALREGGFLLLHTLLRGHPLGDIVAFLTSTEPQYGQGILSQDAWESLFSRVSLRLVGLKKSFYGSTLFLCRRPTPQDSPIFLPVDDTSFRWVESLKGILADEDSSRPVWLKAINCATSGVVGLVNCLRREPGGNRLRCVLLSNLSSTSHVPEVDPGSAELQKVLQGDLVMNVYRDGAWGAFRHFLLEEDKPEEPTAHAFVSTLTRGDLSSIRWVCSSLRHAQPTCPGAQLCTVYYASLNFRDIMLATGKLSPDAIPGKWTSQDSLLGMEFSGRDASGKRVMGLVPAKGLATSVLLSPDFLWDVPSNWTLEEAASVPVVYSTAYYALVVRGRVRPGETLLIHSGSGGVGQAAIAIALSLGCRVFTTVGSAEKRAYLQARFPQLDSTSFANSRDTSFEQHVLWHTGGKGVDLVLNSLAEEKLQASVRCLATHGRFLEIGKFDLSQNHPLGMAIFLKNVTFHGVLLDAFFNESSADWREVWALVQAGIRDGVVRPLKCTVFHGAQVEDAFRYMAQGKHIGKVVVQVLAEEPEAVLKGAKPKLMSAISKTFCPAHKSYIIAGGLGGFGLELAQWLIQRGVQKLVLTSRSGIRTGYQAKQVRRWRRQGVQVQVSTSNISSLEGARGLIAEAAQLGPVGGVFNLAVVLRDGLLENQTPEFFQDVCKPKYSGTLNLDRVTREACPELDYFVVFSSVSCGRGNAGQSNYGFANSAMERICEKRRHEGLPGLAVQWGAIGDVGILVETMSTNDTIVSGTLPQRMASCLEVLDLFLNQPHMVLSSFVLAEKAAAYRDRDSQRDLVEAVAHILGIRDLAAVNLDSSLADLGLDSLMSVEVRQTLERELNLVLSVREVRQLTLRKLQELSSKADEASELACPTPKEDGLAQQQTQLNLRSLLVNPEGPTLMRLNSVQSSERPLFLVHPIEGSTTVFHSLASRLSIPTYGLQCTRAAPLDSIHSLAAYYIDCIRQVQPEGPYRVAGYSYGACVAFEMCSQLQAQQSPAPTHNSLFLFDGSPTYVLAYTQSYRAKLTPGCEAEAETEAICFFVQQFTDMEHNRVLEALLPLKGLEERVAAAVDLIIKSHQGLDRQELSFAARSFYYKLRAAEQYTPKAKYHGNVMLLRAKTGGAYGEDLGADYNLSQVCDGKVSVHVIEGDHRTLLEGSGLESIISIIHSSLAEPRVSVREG

[9] = molecular target: T3, Fatty acid synthase; assay: inhibition of human FAS-TE enzyme activity – biochemical, kinetic fluorescence intensity, dose response (AID 624326); format: functional;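 further: rate of fluorescence rise from hydrolysis of a fluorogenic O-methyl fluorescein ester substrate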
[10] = molecular target: Low molecular weight phosphotyrosine protein phosphatase (Homo sapiens, UniProt P24666); format: functional; details: read-out: IC50_Mean;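 further: Dose-response confirmation assay measuring inhibition of LMPTP enzyme activity by fluorescence intensity read-out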
Low molecular weight phosphotyrosine protein phosphatase, sequence (P24666 whole entry): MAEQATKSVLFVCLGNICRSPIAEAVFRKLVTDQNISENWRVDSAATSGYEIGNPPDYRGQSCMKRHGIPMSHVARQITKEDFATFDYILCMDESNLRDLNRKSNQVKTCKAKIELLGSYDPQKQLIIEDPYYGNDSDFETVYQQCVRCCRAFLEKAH

[11] = molecular target: T4, Dual specificity protein phosphatase 6 (Rattus norvegicus, UniProt Q64346); assay: inhibition of rat DUSP6 enzyme activity – biochemical, in vitro, primary screen (AID 425)
T4 sequence (Q64346 whole entry): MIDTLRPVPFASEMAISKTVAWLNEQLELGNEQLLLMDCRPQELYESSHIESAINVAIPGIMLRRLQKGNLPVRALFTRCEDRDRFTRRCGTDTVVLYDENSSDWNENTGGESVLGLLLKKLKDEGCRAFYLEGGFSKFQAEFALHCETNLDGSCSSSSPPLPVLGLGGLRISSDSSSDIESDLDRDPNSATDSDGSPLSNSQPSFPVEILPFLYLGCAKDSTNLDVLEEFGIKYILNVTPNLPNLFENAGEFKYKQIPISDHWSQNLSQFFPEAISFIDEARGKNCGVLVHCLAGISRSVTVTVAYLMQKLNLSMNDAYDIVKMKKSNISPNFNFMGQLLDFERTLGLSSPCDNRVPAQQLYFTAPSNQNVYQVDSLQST

[12] = molecular target: T5, Interleukin-8 (Homo sapiens, UniProt P10145); assay: Dose Response confirmation of uHTS small molecule hits for cystic fibrosis induced NFkb Inhibitors in a TNFa-induced IL8 counterscreen.; format: functional; details: read-out: IC50_Mean
T5 sequence (P10145 whole entry): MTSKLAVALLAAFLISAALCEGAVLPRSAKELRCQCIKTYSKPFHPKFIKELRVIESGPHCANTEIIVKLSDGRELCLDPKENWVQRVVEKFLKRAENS

[13] = molecular target: T5, Interleukin-8; assay: Dose Response confirmation of uHTS small molecule hits for cystic fibrosis induced NFkb Inhibitors in a PAF-induced IL8 counterscreen.; format: functional; details: read-out: IC50_Mean
[14] = Trypanosoma cruzi growth suppression in host cells – NIH3T3 host cells, beta-gal luminescence, confirmation (AID 2044); format: functional, cell-based;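 further: intracellular parasites grown in NIH/3T3 mouse fibroblasts as host cells; luminescent beta-galactosidase reporter signal from transgenic T. cruzi replicating inside host cells; inhibitors lower the luminescence signal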
[15] = NIH3T3 cell viability loss – ATP luminescence, mouse fibroblasts, counter-screen, dose response (AID 2010); format: functional, cell-based;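 further: cells exposed to compound for about 90 hours before reading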
[16] = molecular target: T6, Heat shock factor protein 1 (Mus musculus, UniProt P38532); assay: enhancement of HSF1-driven luciferase signal – cell-based, NIH3T3, luminescence, dose retest, confirmation (AID 435004); format: functional;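 further: stress induced by proteasome inhibitor MG132 added 30 min after compound; luciferase reporter driven by HSF1 response element in NIH3T3 cells; actives raise luminescence as potentiators of the MG132 stress response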
T6 sequence (P38532 whole entry): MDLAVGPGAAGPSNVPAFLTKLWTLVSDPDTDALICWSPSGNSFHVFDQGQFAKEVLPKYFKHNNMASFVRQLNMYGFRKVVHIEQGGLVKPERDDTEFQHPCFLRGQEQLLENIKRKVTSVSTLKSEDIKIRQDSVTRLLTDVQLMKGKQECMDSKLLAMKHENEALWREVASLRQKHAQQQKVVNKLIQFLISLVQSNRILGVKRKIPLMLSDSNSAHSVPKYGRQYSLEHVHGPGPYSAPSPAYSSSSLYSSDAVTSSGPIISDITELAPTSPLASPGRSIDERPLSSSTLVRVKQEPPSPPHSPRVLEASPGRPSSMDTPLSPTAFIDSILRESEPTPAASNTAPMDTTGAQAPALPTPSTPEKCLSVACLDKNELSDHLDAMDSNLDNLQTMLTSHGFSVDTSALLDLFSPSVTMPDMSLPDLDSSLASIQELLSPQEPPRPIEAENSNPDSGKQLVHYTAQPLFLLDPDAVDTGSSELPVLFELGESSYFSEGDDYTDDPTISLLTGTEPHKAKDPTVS

[17] = molecular target: T7, X-box-binding protein 1 (Homo sapiens, UniProt P17861); format: functional, Cricetulus griseus;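 further: confirmatory dose-response counter-screen serving a CHOP assay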
T7 sequence (P17861 whole entry): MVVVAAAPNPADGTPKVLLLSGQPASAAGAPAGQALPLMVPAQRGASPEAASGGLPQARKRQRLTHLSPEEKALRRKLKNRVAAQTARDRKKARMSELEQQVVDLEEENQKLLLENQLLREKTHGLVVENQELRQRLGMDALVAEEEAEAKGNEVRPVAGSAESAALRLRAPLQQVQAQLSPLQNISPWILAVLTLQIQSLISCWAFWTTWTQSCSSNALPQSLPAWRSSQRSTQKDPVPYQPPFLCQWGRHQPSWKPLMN

[18] = molecular target: Melanocortin receptor 4 (Homo sapiens, UniProt P32245); format: functional, cell-based;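 further: Cell-based assay with luminescence read-out, confirmatory dose-response testing for agonist activity of biased ligands at MC4R; human U2OS cells with tagged receptor and beta-arrestin; potency of agonists that increase receptor coupling to beta-arrestin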
Melanocortin receptor 4, sequence (P32245 whole entry): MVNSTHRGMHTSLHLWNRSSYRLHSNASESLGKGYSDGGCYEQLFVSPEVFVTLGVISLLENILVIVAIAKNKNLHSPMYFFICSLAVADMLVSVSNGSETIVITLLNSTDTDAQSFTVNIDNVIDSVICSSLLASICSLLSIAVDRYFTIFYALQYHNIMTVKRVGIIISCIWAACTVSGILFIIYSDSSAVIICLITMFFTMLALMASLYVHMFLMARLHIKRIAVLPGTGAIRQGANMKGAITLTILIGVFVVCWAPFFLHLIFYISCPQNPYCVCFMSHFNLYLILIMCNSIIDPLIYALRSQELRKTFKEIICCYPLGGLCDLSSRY

[19] = molecular target: T8, Apoptotic protease-activating factor 1 (Homo sapiens, UniProt O14727); assay: SAR analysis of small molecule Activators of Apaf-1 in a Fluorescent assay.; format: functional; details: read-out: EC50_Mean;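 further: caspase-3 cleavage of fluorogenic Rh110 DEVD substrate downstream of apoptosome activation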
T8 sequence (O14727 whole entry): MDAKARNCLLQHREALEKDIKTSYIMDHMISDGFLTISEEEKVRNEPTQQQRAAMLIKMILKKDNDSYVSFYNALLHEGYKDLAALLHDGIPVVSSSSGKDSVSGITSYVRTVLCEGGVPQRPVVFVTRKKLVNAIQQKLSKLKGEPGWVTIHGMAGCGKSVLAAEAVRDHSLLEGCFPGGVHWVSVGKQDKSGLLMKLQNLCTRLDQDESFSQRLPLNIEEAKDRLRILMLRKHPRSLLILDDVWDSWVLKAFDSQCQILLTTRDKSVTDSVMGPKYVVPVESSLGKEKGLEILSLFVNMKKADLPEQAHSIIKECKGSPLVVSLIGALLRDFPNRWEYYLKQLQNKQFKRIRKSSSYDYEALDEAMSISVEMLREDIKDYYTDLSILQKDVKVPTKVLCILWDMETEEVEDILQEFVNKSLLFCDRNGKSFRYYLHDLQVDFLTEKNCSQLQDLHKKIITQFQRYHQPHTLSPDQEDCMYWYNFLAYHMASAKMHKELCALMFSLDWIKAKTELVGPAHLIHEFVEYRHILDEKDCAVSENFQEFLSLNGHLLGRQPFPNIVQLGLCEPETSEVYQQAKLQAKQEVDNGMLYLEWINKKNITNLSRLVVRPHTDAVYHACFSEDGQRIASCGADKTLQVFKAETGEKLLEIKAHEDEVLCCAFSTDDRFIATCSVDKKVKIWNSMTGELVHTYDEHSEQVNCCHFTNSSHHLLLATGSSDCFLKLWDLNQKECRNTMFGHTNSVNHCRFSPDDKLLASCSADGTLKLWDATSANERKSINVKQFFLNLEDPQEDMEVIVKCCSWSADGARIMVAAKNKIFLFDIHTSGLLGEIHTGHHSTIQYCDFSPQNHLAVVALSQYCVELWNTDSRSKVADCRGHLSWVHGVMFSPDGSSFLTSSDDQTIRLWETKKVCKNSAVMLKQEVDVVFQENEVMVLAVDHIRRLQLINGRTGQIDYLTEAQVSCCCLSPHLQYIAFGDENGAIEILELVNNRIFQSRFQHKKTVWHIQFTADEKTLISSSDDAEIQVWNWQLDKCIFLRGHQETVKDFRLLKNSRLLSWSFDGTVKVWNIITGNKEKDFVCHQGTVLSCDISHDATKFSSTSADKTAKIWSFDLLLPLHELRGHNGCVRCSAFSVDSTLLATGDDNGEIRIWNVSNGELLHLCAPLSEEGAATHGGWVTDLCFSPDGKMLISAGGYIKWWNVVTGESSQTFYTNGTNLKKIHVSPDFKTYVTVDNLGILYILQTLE

[20] = tested on: P388/ADR; assay: cells; format: functional; details: Mus musculus
[21] = tested on: SN12K1; assay: cells; format: functional; details: Homo sapiens
[22] = tested on: P388; assay: cells; format: functional; details: Mus musculus

Large T antigen, sequence (P03070 whole entry): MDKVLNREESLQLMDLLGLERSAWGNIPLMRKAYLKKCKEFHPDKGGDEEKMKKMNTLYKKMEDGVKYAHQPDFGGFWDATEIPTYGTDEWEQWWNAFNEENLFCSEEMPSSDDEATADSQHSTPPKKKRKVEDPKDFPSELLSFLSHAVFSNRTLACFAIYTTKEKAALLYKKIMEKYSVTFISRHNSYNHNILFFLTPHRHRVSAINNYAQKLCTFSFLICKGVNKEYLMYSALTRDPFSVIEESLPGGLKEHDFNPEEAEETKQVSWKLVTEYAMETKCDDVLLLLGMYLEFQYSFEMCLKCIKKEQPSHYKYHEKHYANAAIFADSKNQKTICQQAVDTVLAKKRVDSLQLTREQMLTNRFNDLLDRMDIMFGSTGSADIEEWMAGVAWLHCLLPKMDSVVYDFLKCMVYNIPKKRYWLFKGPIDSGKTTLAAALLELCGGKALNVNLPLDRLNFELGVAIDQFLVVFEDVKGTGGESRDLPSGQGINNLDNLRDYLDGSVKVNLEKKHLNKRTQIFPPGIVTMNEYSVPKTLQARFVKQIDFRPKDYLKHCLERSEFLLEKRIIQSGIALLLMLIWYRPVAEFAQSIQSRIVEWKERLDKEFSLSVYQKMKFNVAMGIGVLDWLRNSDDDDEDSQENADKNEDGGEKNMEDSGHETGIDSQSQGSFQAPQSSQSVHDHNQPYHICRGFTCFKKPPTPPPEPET

CCOC(=O)C1(C)C=C(Nc2ccc(O)cc2)C(=O)N1c1ccc(O)cc1 (configuration not stated)
IC50 [1]: 8.11 µM (active)
EC50 [2]: 1.09 µM (active)
IC50 [3]: 21.4 µM (active)

O=C(Cc1nc2ccccc2s1)c1ccc(O)cc1O
EC50 [4]: > 160 µM (inactive)
EC50 [5]: 0.691 µM (active)
EC50 [6]: > 180 µM (inactive)
EC50 [7]: > 160 µM (inactive)

COc1cc2ncc(S(=O)(=O)c3ccccc3)c(N3CCCC(C)C3)c2cc1OC (configuration not stated)
EC50 [2]: 1.07 µM (active)
IC50 [8]: 4.78 µM (active)
IC50 [9]: 3.13 µM (active)

CC(Nc1nc(-c2ccccc2F)nc2ccccc12)c1ccccc1 (configuration not stated)
IC50 [10]: 5.48 µM (active)

O=C(O)c1cnc2ccc(S(=O)(=O)N3CCN(c4ccc(F)cc4)CC3)cc2c1O
IC50 [11]: > 10 µM (not active)
IC50 [10]: 50.6 µM (inactive)

N#C/C(=C\c1ccc(N2CCOCC2)cc1)c1ccccc1
EC50 [4]: > 150 µM (inactive)
EC50 [5]: 0.49 µM (active)
EC50 [6]: > 180 µM (inactive)
EC50 [7]: 68.9 µM (active)

COc1ccc(-c2csc(NC3OC(=O)c4c3ccc(OC)c4OC)n2)cc1OC (configuration not stated)
IC50 [12]: 0.969 µM (active)
IC50 [13]: 1.37 µM (active)

Cc1ccc(C2=NN(C(=O)c3cccs3)C(c3ccccc3O)C2)cc1 (configuration not stated)
EC50 [14]: 2.49 µM (active)
EC50 [15]: > 60 µM (not active)
EC50 [16]: > 260 µM (inactive)
Absolute IC50 (XBP1) [17]: 10 µM
EC50 [18]: > 89.2 µM (inactive)

NC(c1ccccc1)c1csc(NC(=O)Nc2ccccc2Oc2ccccc2)n1 (configuration not stated)
EC50 [18]: > 89.2 µM (inactive)

O=C(COc1ccccc1F)N1c2ccccc2CCc2ccccc21
EC50 [2]: 1.6 µM (active)

Cc1ccc(N2C(=O)CC3(CC(c4ccc(Br)cc4)=NO3)C2=O)cc1 (configuration not stated)
EC50 [19]: > 100 µM (inactive)

COCCOCOc1ccc(OCc2ccccc2)cc1
GI50 [20]: 24 µM (inactive)
GI50 [21]: > 100 µM (inactive)
GI50 [22]: 31.3 µM (inactive)

O=C(O)[C@@H]1COC(c2ccccc2C(F)(F)F)=N1
EC50 [19]: > 100 µM (inactive)

COc1cc2c(cc1Oc1ccc(OC)c3c1CC1c4c(cc(OC)c(OC)c4-3)CCN1C)CC1c3c(cc(OC)c(OC)c3-2)CCN1C (configuration not stated)
GI50 [20]: 1.87 µM (inactive)
GI50 [21]: 0.424 µM (active)
GI50 [22]: 1.77 µM (inactive)

Cc1ccccc1-c1nc2c(C(=O)NCCN(C)C)cccc2[nH]1
GI50 [20]: 26.5 µM (inactive)
GI50 [21]: 30.5 µM (inactive)
GI50 [22]: 16.3 µM (inactive)
